Results on eleven compounds are retold here after US7709498B2, “Quinoline derivatives as antibacterial agents” (Janssen Pharmaceutica N.V., priority 2005, dated 2010).

What all share (type): cell-based
Assay [1] has as its system Streptococcus mutans (ATCC33402). In words: Microtitre plate assay, IC90 determination, SMU 33402. Particulars: 90% inhibitory concentration for bacterial growth, 37° C., resazurin fluorescence; for IC90: Streptococcus mutans, ATCC33402, 24 h, read-out: IC90 (μg/ml) SMU 33402; for IC90 (μg/ml) SMU 33402: 24 hours. As to the method:
(§1) The bacteria used in this study were grown overnight in flasks containing 100 ml Mueller-Hinton Broth (Becton Dickinson—cat. no. 275730) in sterile de-ionized water, with shaking, at 37° C. Stocks (0.5 ml/tube) were stored at −70° C. until use. Bacteria titrations were performed in microtiter plates to detect the TCID50, in which the TCID50 represents the dilution that gives rise to bacterial growth in 50% of inoculated cultures.
(§2) In general, an inoculum level of approximately 100 TCID50 was used for susceptibility testing.
(§3) Flat-bottom, sterile 96-well plastic microtiter plates were filled with 180 μl of sterile deionized water, supplemented with 0.25% BSA. Subsequently, stock solutions (7.8× final test concentration) of compounds were added in 45 μl volumes in column 2. Serial five-fold dilutions (45 μl in 180 μl) were made directly in the microtiter plates from column 2 to reach column 11. Untreated control samples with (column 1) and without (column 12) inoculum were included in each microtiter plate. Depending on the bacteria type, approximately 10 to 60 CFU per well of bacteria inoculum (100 TCID50), in a volume of 100 μl in 2.8× Mueller-Hinton broth medium, was added to the rows A to H, except column 12. The same volume of broth medium without inoculum was added to column 12 in row A to H. The cultures were incubated at 37° C. for 24 hours under a normal atmosphere (incubator with open air valve and continuous ventilation). At the end of incubation, one day after inoculation, the bacterial growth was quantitated fluorometrically. Therefore resazurin (0.6 mg/ml) was added in a volume of 20 μl to all wells 3 hours after inoculation, and the plates were re-incubated overnight. A change in colour from blue to pink indicated the growth of bacteria. The fluorescence was read in a computer-controlled fluorometer (Cytofluor Biosearch) at an excitation wavelength of 530 nm and an emission wavelength of 590 nm. The % growth inhibition achieved by the compounds was calculated according to standard methods. The IC90 (expressed in μg/ml) was defined as the 90% inhibitory concentration for bacterial growth.
(§4) BSU 3639 means Bacillus subtilis (ATCC43639); ECO 25922 means Escherichia coli (ATCC25922); EFA 14506 means Enterococcus faecalis (ATCC14506); EFA 29212 means Enterococcus faecalis (ATCC29212); LMO 49594 means Listeria monocytogenes (ATCC49594); PAE 27853 means Pseudomonas aeruginosa (ATCC27853); SMU 33402 means Streptococcus mutans (ATCC33402); SPN 6305 means Streptococcus pneumoniae (ATCC6305); SPY 8668 means Streptococcus pyogens (ATCC8668); STA 43300 means Staphylococcus aureus (ATCC43300); STA 25923 means Staphylococcus aureus (ATCC25923); STA 29213 means Staphylococcus aureus (ATCC29213); STA RMETH means methicilline resistant Staphylococcus aureus (MRSA) (a clinical isolate from the University of Antwerp). ATCC means American type tissue culture.

Assay [2] deals with Listeria monocytogenes (ATCC49594). Briefly: Microtitre plate assay, IC90 determination, LMO 49594. Particulars: 90% inhibitory concentration for bacterial growth, 37° C., resazurin fluorescence; for IC90: Listeria monocytogenes, ATCC49594, 24 h, read-out: IC90 (μg/ml) LMO 49594; for IC90 (μg/ml) LMO 49594: 24 hours. As to the method: as §1, §2, §3, §4
A general note: Resazurin is reduced to fluorescent resorufin, in cell work by metabolically active cells.

Assay [3] relates to Streptococcus pneumoniae (ATCC6305). Briefly: Microtitre plate assay, IC90 determination, SPN 6305. As to conditions: 90% inhibitory concentration for bacterial growth, 37° C., resazurin fluorescence; for IC90: Streptococcus pneumoniae, ATCC6305, 24 h, read-out: IC90 (μg/ml) SPN 6305; for IC90 (μg/ml) SPN 6305: 24 hours. As to the method:
as §1, §2, §3, §4

Assay [4] relates to Streptococcus pyogens (ATCC8668). Briefly: Microtitre plate assay, IC90 determination, SPY 8668. Particulars: 90% inhibitory concentration for bacterial growth, 37° C., resazurin fluorescence; for IC90: Streptococcus, ATCC8668, 24 h, read-out: IC90 (μg/ml) SPY 8668; for IC90 (μg/ml) SPY 8668: 24 hours. As to the method:
as §1, §2, §3, §4

For assay [5], the system named is Enterococcus faecalis (ATCC29212). In words: Microtitre plate assay, IC90 determination, EFA 29212. Particulars: 90% inhibitory concentration for bacterial growth, 37° C., resazurin fluorescence; for IC90: Enterococcus faecalis, ATCC29212, 24 h, read-out: IC90 (μg/ml) EFA 29212. The method, then: as §1, §2, §3, §4
The test system of assay [6] is Pseudomonas aeruginosa (ATCC27853). In words: Microtitre plate assay, IC90 determination, PAE 27853. As to conditions: 90% inhibitory concentration for bacterial growth, 37° C., resazurin fluorescence; for IC90: Pseudomonas aeruginosa, ATCC27853, 24 h, read-out: IC90 (μg/ml) PAE 27853. The method, then: as §1, §2, §3, §4
Assay [7] relates to Bacillus subtilis (ATCC43639). Briefly: Microtitre plate assay, IC90 determination, BSU 43639. Particulars: Bacillus subtilis, ATCC43639, 24 h, 90% inhibitory concentration for bacterial growth, 37° C., resazurin fluorescence, read-out: IC90 (μg/ml) BSU 43639. The method, then: as §1, §2, §3, §4
For assay [8], the system named is Staphylococcus aureus (ATCC43300). In words: Microtitre plate assay, IC90 determination, STA 43300. As to conditions: Staphylococcus aureus, ATCC43300, 24 h, 90% inhibitory concentration for bacterial growth, 37° C., resazurin fluorescence, read-out: IC90 (μg/ml) STA 43300. The method, then: as §1, §2, §3, §4

≈ marks a conversion by molar mass, not a printed value.

In the case of `COc1nc2ccc(-c3ccccc3)cc2cc1C(c1ccccc1)C(O)(CCN(C)C)c1cccc2ccccc12` (stereo not drawn) [Compound 84], the IC90 in assay [1] is 11 µg/mL (≈ 19.9 µM); in assay [2] it was 11 µg/mL (≈ 19.9 µM); in assay [3], 7 µg/mL (≈ 12.7 µM); in assay [4], 11 µg/mL (≈ 19.9 µM).
With `COc1nc2ccc(Cl)cc2cc1C(c1ccccc1)C(O)(CCN(C)C)c1ccccc1` (stereo not drawn) [Compound 30], the “IC90 (μg/ml) EFA 29212” value in assay [5] (24 hours) was 10.3 µg/mL (≈ 22.3 µM). Also, the “IC90 (μg/ml) SMU 33402” value in assay [1] was determined as 10.3 µg/mL (≈ 22.3 µM). For the same compound, the “IC90 (μg/ml) LMO 49594” value in assay [2] came out at 10.3 µg/mL (≈ 22.3 µM). Also, the “IC90 (μg/ml) SPN 6305” value in assay [3] was 5.2 µg/mL (≈ 11.3 µM). The “IC90 (μg/ml) SPY 8668” value in assay [4] was found to be 10.3 µg/mL (≈ 22.3 µM). The “IC90 (μg/ml) PAE 27853” value in assay [6] (24 hours) was found to be 9.2 µg/mL (≈ 20 µM).
In the case of `COc1nc2ccc(Br)cc2cc1C(c1ccccc1)C(O)(CCN(C)C)c1ccccc1` (single isomer, unassigned) [E], the IC90 in assay [7] was 12.7 µg/mL (≈ 25.1 µM); in assay [5], 11.3 µg/mL (≈ 22.4 µM); in assay [2], 7.1 µg/mL (≈ 14 µM); in assay [8], 12.7 µg/mL (≈ 25.1 µM); in assay [6], 10.1 µg/mL (≈ 20 µM). Besides, the “IC90 (μg/ml) SMU 33402” value in assay [1] was 10.1 µg/mL (≈ 20 µM). Also, the “IC90 (μg/ml) SPN 6305” value in assay [3] turned out to be 5.7 µg/mL (≈ 11.3 µM). Besides, in assay [4], the “IC90 (μg/ml) SPY 8668” value turned out to be 5.1 µg/mL (≈ 10.1 µM).
Consider `COc1nc2ccc(-c3ccc(CO)o3)cc2cc1C(c1ccccc1)C(O)(CCN(C)C)c1cccc2ccccc12` (stereo not drawn) [Compound 212], for which the IC90 in assay [7] was 11.4 µg/mL (≈ 19.9 µM).
For the compound `CCOc1nc2ccc(Br)cc2cc1C(c1ccccc1)C(O)(CCN(C)C)c1ccccc1` (stereo not drawn) [Compound 6], the IC90 in assay [5] was found to be 11.6 µg/mL (≈ 22.3 µM); in assay [2] it was 11.6 µg/mL (≈ 22.3 µM); in assay [3] it was 13 µg/mL (≈ 25 µM); in assay [4], 4.6 µg/mL (≈ 8.85 µM); in assay [6], 11.6 µg/mL (≈ 22.3 µM). The “IC90 (μg/ml) SMU 33402” value in assay [1] was 4.6 µg/mL (≈ 8.85 µM).
`COc1nc2ccc(Br)cc2cc1C(c1ccccc1)C(O)(CCN(C)C)c1ccccc1F` (stereo not drawn) [Compound 69]: the IC90 in assay [2] came out at 10.4 µg/mL (≈ 19.9 µM); in assay [3], 13.1 µg/mL (≈ 25 µM); in assay [6] it was 10.4 µg/mL (≈ 19.9 µM).
`COc1nc2ccc(Br)cc2cc1C(c1ccccc1)C(O)(CCN(C)C)c1ccc2c(c1)OCO2` (stereo not drawn) [Compound 76]: the IC90 in assay [2] and in assay [6] was 11 µg/mL (≈ 20 µM) in each case.
Regarding `COc1nc2ccc(Br)cc2cc1C(c1ccccc1)C(O)(CC[N+](C)(C)[O-])c1ccccc1` (racemic) [Compound 11], the “IC90 (μg/ml) SMU 33402” value in assay [1] was found to be 10.4 µg/mL (≈ 19.9 µM). In assay [2], the “IC90 (μg/ml) LMO 49594” value stood at 11.7 µg/mL (≈ 22.4 µM). For the same compound, the “IC90 (μg/ml) SPY 8668” value in assay [4] was determined as 11.7 µg/mL (≈ 22.4 µM).
With `COc1nc2ccc(Br)cc2cc1C(c1ccccc1)C(O)(CCN(C)C)C1CCN(C(=O)c2ccccc2)CC1` (stereo not drawn) [Compound 201], the IC90 in assay [7], in assay [5], in assay [2] and in assay [6] was 12.3 µg/mL (≈ 19.9 µM) in each case.
Take `COc1nc2ccc(Br)cc2cc1C(c1ccccc1)C(O)(CCN1CCCCC1)c1ccccc1` (stereo not drawn) [Compound 48]: the IC90 is 10.9 µg/mL (≈ 20 µM) in assay [1]; 10.9 µg/mL (≈ 20 µM) in assay [2]; 13.7 µg/mL (≈ 25.1 µM) in assay [3]; 13.7 µg/mL (≈ 25.1 µM) in assay [4]; 10.9 µg/mL (≈ 20 µM) in assay [6].
For `COc1nc2ccc(Br)cc2cc1C(c1ccccc1)C(O)(CCN(C)C)c1ccsc1` (stereo not drawn) [Compound 25], the IC90 in assay [5] came to 11.5 µg/mL (≈ 22.5 µM); in assay [1], 11.5 µg/mL (≈ 22.5 µM); in assay [2], 11.5 µg/mL (≈ 22.5 µM); in assay [8], 12.8 µg/mL (≈ 25 µM); in assay [4], 4.1 µg/mL (≈ 8.02 µM). Also, the “IC90 (μg/ml) SPN 6305” value in assay [3] stood at 12.8 µg/mL (≈ 25 µM).
